Test results reported in patent publication US8188139B2, “Heterocyclic-substituted phenyl methanones” (Hoffman-La Roche Inc., priority 2005, dated 2012).

biological target: T1, mGlyT-1b (Mus musculus, UniProt P28571); experiment: Glycine uptake inhibition assay (mGlyT-1b); assay type: cell-based; details: inhibition of [3H]-glycine uptake in Flp-in-CHO cells transfected with mGlyT-1b cDNA; 20 min preincubation at 22° C.; read-out: IC50 (μM) at GlyT-1
T1 construct: host or cells: Flp-in-CHO
T1 sequence (P28571 1-651 isoform P28571-2): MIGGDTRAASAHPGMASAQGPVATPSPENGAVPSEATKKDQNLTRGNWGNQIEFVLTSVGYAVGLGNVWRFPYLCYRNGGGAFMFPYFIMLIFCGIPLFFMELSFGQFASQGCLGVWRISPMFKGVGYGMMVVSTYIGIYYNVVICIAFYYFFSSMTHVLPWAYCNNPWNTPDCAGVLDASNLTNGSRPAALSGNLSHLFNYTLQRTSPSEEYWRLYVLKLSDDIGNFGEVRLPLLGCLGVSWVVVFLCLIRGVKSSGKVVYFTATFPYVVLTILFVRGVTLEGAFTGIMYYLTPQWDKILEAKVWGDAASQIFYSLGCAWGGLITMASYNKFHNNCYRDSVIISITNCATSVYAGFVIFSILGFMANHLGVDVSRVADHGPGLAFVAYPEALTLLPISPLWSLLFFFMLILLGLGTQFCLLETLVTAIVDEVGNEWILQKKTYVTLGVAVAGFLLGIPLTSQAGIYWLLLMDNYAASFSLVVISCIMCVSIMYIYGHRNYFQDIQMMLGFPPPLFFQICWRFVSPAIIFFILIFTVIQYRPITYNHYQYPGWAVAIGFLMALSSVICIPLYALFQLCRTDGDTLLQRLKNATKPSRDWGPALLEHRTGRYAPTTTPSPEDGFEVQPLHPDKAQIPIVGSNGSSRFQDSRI
Experimental: DMEM complete medium: Nutrient mixture F-12 (Gibco Life-technologies), fetal bovine serum (FBS) 5%, (Gibco life technologies), Penicillin/Streptomycin1% (Gibco life technologies), Hygromycin 0.6 mg/ml (Gibco life technologies), Glutamine 1 mM Gibco life technologies)
Uptake buffer (UB): 150 mM NaCl, 10 mM Hepes-Tris, pH 7.4, 1 mM CaCl2, 2.5 mM KCl, 2.5 mM MgSO4, 10 mM (+) D-glucose.
Flp-in™-CHO (Invitrogen Cat n^o R758-07) cells stably transfected with mGlyT1b cDNA.
Glycine Uptake Inhibition Assay (mGlyT-1b)
On day 1 mammalian cells, (Flp-in™-CHO), transfected with mGlyT-1b cDNA, were plated at the density of 40,000 cells/well in complete F-12 medium, without hygromycin in 96-well culture plates. On day 2, the medium was aspirated, and the cells were washed twice with uptake buffer (UB). The cells were then incubated for 20 min at 22° C. with either (i) no potential competitor, (ii) 10 mM non-radioactive glycine, (iii) a concentration of a potential inhibitor. A range of concentrations of the potential inhibitor was used to generate data for calculating the concentration of inhibitor resulting in 50% of the effect (e.g. IC50, the concentration of the competitor inhibiting glycine uptake of 50%). A solution was then immediately added containing [^3H]-glycine 60 nM (11-16 Ci/mmol) and 25 μM non-radioactive glycine. The plates were incubated with gentle shaking, and the reaction was stopped by aspiration of the mixture and washing (three times) with ice-cold UB. The cells were lysed with scintillation liquid, shaken 3 hours, and the radioactivity in the cells was counted using a scintillation counter.

Q: `CC(C)Oc1ccc(S(C)(=O)=O)cc1C(=O)N1Cc2ccc(C3CCOCC3)cc2C1` [Example 268, (2-Isopropoxy-5-methanesulfonyl-phenyl)-[5-(tetrahydro-pyran-4-yl)-1,3-dihydro-isoindol-2-yl]-methanone] was tested. Which IC50 did it give?
A: 0.028 µM

Q: With `C[C@H](Oc1ccc(S(C)(=O)=O)cc1C(=O)N1Cc2cnc(N3CCOCC3)cc2C1)C(F)(F)F` [Example 356, [5-Methanesulfonyl-2-((S)-2,2,2-trifluoro-1-methyl-ethoxy)-phenyl]-(6-morpholin-4-yl-1,3-dihydro-pyrrolo[3,4-c]pyridin-2-yl)-methanone] as the compound, how does the IC50 read?
A: 0.013 µM

Q: `CS(=O)(=O)c1ccc(OCC(F)(F)C(F)F)c(C(=O)N2Cc3cnc(C(F)(F)F)cc3C2)c1` [Example 156, [5-Methanesulfonyl-2-(2,2,3,3-tetrafluoro-propoxy)-phenyl]-(6-trifluoromethyl-1,3-dihydro-pyrrolo[3,4-c]pyridin-2-yl)-methanone] was tested. Which IC50 did it give?
A: 0.047 µM

Q: How did the IC50 turn out when `COc1cc2c(cc1C(F)(F)F)CN(C(=O)c1cc(S(C)(=O)=O)ccc1O[C@@H](C)C(F)(F)F)C2` [Example 100] was run?
A: 0.045 µM

Q: Which IC50 does the source give for `C[C@@H](Oc1ccc(S(C)(=O)=O)cc1C(=O)N1Cc2cc(C(F)(F)F)cnc2C1)C(F)(F)F` [Example 139, [5-Methanesulfonyl-2-((R)-2,2,2-trifluoro-1-methyl-ethoxy)-phenyl]-(3-trifluoro-methyl-5,7-dihydro-pyrrolo[3,4-b]pyridin-6-yl)-methanone] here?
A: 0.014 µM

Q: For `C[C@H](Oc1ccc(S(C)(=O)=O)cc1C(=O)N1Cc2ccc(C3(F)COC3)cc2C1)C(F)(F)F` [Example 368, [5-(3-Fluoro-oxetan-3-yl)-1,3-dihydro-isoindol-2-yl]-[5-methanesulfonyl-2-((S)-2,2,2-trifluoro-1-methyl-ethoxy)-phenyl]-methanone], which IC50 is on record?
A: 0.005 µM

Q: Which IC50 does the source give for `Cc1csc(-c2ccc3c(c2)CN(C(=O)c2cc(S(C)(=O)=O)ccc2O[C@@H](C)C(F)(F)F)C3)c1` [Example 331, [5-Methanesulfonyl-2-(2,2,2-trifluoro-1-methyl-ethoxy)-phenyl]-[5-(4-methyl-thiophen-2-yl)-1,3-dihydro-isoindol-2-yl]-methanone] here?
A: 0.022 µM

Q: `C[C@H](Oc1ccc(S(C)(=O)=O)cc1C(=O)N1Cc2ccc(-c3ccsc3)cc2C1)C(F)(F)F` [Example 330, [5-Methanesulfonyl-2-(2,2,2-trifluoro-1-methyl-ethoxy)-phenyl]-(5-thiophen-3-yl-1,3-dihydro-isoindol-2-yl)-methanone] was tested. Which IC50 did it give?
A: 0.02 µM

Q: For `CC(C)Oc1ccc(S(C)(=O)=O)cc1C(=O)N1Cc2cc(Cl)c(OC3CCOCC3)cc2C1` [Example 376, [5-Chloro-6-(tetrahydro-pyran-4-yloxy)-1,3-dihydro-isoindol-2-yl]-(2-isopropoxy-5-methanesulfonyl-phenyl)-methanone], which IC50 is on record?
A: 0.016 µM

Q: For `COc1cc2c(cc1Cl)CN(C(=O)c1cc(S(C)(=O)=O)ccc1SC(C)C)C2` [Example 71, (5-Chloro-6-methoxy-1,3-dihydro-isoindol-2-yl)-(2-isopropylsulfanyl-5-methanesulfonyl-phenyl)-methanone], which IC50 is on record?
A: 0.049 µM

Q: For `Cc1cscc1-c1ccc2c(c1)CN(C(=O)c1cc(S(C)(=O)=O)ccc1O[C@@H](C)C(F)(F)F)C2` [Example 345], which IC50 is on record?
A: 0.034 µM

Q: For `C[C@H](Oc1ccc(S(C)(=O)=O)cc1C(=O)N1Cc2cc(F)c(C(F)(F)F)cc2C1)C(F)(F)F` [Example 224, (5-Fluoro-6-trifluoromethyl-1,3-dihydro-isoindol-2-yl)-[5-methanesulfonyl-2-((S)-2,2,2-trifluoro-1-methyl-ethoxy)-phenyl]-methanone], which IC50 is on record?
A: 0.019 µM

Q: For `C[C@H](Oc1ccc(S(C)(=O)=O)cc1C(=O)N1Cc2ccc(-c3ccccc3Cl)cc2C1)C(F)(F)F` [Example 324, [5-(2-Chloro-phenyl)-1,3-dihydro-isoindol-2-yl]-[5-methanesulfonyl-2-(2,2,2-trifluoro-1-methyl-ethoxy)-phenyl]-methanone], which IC50 is on record?
A: 0.045 µM

Q: With `C[C@H](Oc1ccc(S(C)(=O)=O)cc1C(=O)N1Cc2ccc(-c3ccc(F)cc3)cc2C1)C(F)(F)F` [Example 333, [5-(4-Fluoro-phenyl)-1,3-dihydro-isoindol-2-yl]-[5-methanesulfonyl-2-(2,2,2-trifluoro-1-methyl-ethoxy)-phenyl]-methanone] as the compound, how does the IC50 read?
A: 0.047 µM

Q: How did the IC50 turn out when `Cc1cc2c(cc1Cl)CN(C(=O)c1cc(S(C)(=O)=O)ccc1O[C@@H](C)C(F)(F)F)C2` [Example 24, (5-Chloro-6-methyl-1,3-dihydro-isoindol-2-yl)-[5-methanesulfonyl-2-((S)-2,2,2-trifluoro-1-methyl-ethoxy)-phenyl]-methanone] was run?
A: 0.019 µM

Q: Which IC50 does the source give for `C[C@H](Oc1ccc(S(C)(=O)=O)cc1C(=O)N1Cc2cc(Cl)c(C3CCOC3)cc2C1)C(F)(F)F` (mixture of isomers) [Example 359, [5-Chloro-6-(tetrahydro-furan-3-yl)-1,3-dihydro-isoindol-2-yl]-[5-methanesulfonyl-2-((S)-2,2,2-trifluoro-1-methyl-ethoxy)-phenyl]-methanone] here?
A: 0.01 µM

Q: With `C[C@H](Oc1ccc(S(C)(=O)=O)cc1C(=O)N1Cc2ccc(-c3cccnc3)cc2C1)C(F)(F)F` [Example 317] as the compound, how does the IC50 read?
A: 0.024 µM

Q: For `CS(=O)(=O)c1ccc(OCC(F)(F)C(F)(F)F)c(C(=O)N2Cc3ccc(OC4CCOCC4)cc3C2)c1` [Example 374, [5-Methanesulfonyl-2-(2,2,3,3,3-pentafluoro-propoxy)-phenyl]-[5-(tetrahydro-pyran-4-yloxy)-1,3-dihydro-isoindol-2-yl]-methanone], which IC50 is on record?
A: 0.003 µM

Q: Which IC50 does the source give for `CS(=O)(=O)c1ccc(OCC(F)(F)C(F)(F)F)c(C(=O)N2Cc3cc(Cl)c(N4C5CCC4COC5)cc3C2)c1` [Example 363, [5-Chloro-6-(3-oxa-8-aza-bicyclo[3.2.1]oct-8-yl)-1,3-dihydro-isoindol-2-yl]-[5-methanesulfonyl-2-(2,2,3,3,3-pentafluoro-propoxy)-phenyl]-methanone] here?
A: 0.004 µM

Q: How did the IC50 turn out when `CS(=O)(=O)c1ccc(OCC2CCC2)c(C(=O)N2Cc3ccc(C4CCOCC4)cc3C2)c1` [Example 272, (2-Cyclobutyl-methoxy-5-methane-sulfonyl-phenyl)-[5-(tetrahydro-pyran-4-yl)-1,3-dihydro-isoindol-2-yl]-methanone] was run?
A: 0.034 µM

Q: Which IC50 does the source give for `C[C@H](Oc1ccc(S(C)(=O)=O)cc1C(=O)N1Cc2cnc(-c3ccc(F)cc3)cc2C1)C(F)(F)F` [Example 321, [6-(4-Fluoro-phenyl)-1,3-dihydro-pyrrolo[3,4-c]pyridin-2-yl]-[5-methanesulfonyl-2-((S)-2,2,2-trifluoro-1-methyl-ethoxy)-phenyl]-methanone] here?
A: 0.034 µM

Q: With `CS(=O)(=O)c1ccc(OCC(F)(F)C(F)(F)F)c(C(=O)N2Cc3cnc(C(F)(F)F)cc3C2)c1` [Example 155, [5-Methanesulfonyl-2-(2,2,3,3,3-pentafluoro-propoxy)-phenyl]-(6-trifluoromethyl-1,3-dihydro-pyrrolo[3,4-c]pyridin-2-yl)-methanone] as the compound, how does the IC50 read?
A: 0.044 µM

Q: `C[C@H](Oc1ccc(S(C)(=O)=O)cc1C(=O)N1Cc2ccc(-c3nccs3)cc2C1)C(F)(F)F` [Example 172, [5-Methanesulfonyl-2-((S)-2,2,2-trifluoro-1-methyl-ethoxy)-phenyl]-(5-thiazol-2-yl-1,3-dihydro-isoindol-2-yl)-methanone] was tested. Which IC50 did it give?
A: 0.03 µM

Q: With `COc1cccc(-c2ccc3c(c2)CN(C(=O)c2cc(S(C)(=O)=O)ccc2O[C@@H](C)C(F)(F)F)C3)c1` [Example 340, [5-Methanesulfonyl-2-(2,2,2-trifluoro-1-methyl-ethoxy)-phenyl]-[5-(3-methoxy-phenyl)-1,3-dihydro-isoindol-2-yl]-methanone] as the compound, how does the IC50 read?
A: 0.025 µM

Q: Which IC50 does the source give for `CC(C)Oc1ccc(S(C)(=O)=O)cc1C(=O)N1Cc2cc(F)c(OC3CCOCC3)cc2C1` [Example 378, [5-Fluoro-6-(tetrahydro-pyran-4-yloxy)-1,3-dihydro-isoindol-2-yl]-(2-isopropoxy-5-methanesulfonyl-phenyl)-methanone] here?
A: 0.035 µM
